Measurements as given in patent publication US10688103B2, “Methods for treating hypersomnia” (BALANCE THERAPEUTICS, INC., priority 2014, dated 2020).

Experiments:
[1] = test system: patient diagnosed with primary hypersomnia; experiment: Multidimensional Fatigue Inventory (MFI) in hypersomnia patients; assay type: in vivo, human; parameters: key: MFI subscale score; lower scores indicate improvement
Protocol: In some embodiments, the subject having hypersomnia is assessed using the Multidimensional Fatigue Inventory (MFI). The MFI is typically a 20-item scale designed to evaluate five dimensions of fatigue. In some embodiments, a total MFI score is calculated. In some embodiments, the MFI can include one or more scales (e.g., 1, 2, 3, 4, 5, 6, 7, 8, or more scales). In some embodiments, the MFI scales can include, e.g., a General Fatigue Scale, a Physical Activity Scale, a Reduced Activity Scale, a Reduced Motivation Scale, or a Mental Fatigue Scale. Generally, in MFI lower scores indicate improvements in the subject's […].
(§1) The patient was selected for PTZ treatments based on a clinical diagnosis of primary hypersomnia and the presence of an elevated level of an endogenous positive GABAA receptor allosteric modulator in the cerebrospinal fluid (CSF) of the subject relative to the CSF of a subject not having hypersomnia. The patient's sleepiness was scored according to the Epworth Sleepiness Scale (ESS), the Functional Outcomes of Sleep Questionnaire (FOSQ) Total Score, and the Multidimensional Fatigue Inventory (MFI). Additional clinical parameters recorded during the course of PTZ treatment included the Clinical Global Impression of Severity (CGI-S), the Clinical Global Impression of Change (CGI-C), the Beck Depression Inventory (BDI-II) Total Score and the patient's reported feelings of fogginess.
(§2) PTZ was orally administered to the patient twice daily at doses of 100 mg in liquid form in a TANG™ brand juice.
(§3) The patients were selected for PTZ treatments and evaluated as described in Example 2. PTZ was orally administered in liquid form in a TANG™ brand juice.
(§4) The patients were first evaluated while receiving flumazenil (Patient 1) or clarithromycin (Patient 2). […] A second evaluation of the two patients was performed at the end of the wash-out period. PTZ was then administered to Patient 1 for two weeks. During the first week, PTZ was administered to Patient 1 twice daily at doses of 100 mg, and during the second week PTZ was administered to Patient 1 at doses of 200 mg. PTZ was administered to Patient 2 for one week twice daily at doses of 100 mg. The patients were evaluated at the end of the first week (Patients 1 and 2) and at the end of the second week (Patient 1).

[2] = test system: patient diagnosed with primary hypersomnia; experiment: Beck Depression Inventory (BDI-II) in hypersomnia patients; assay type: in vivo, human
Protocol: In some embodiments, the subject having hypersomnia is assessed using the Beck Depression Inventory (current version, published in 1996, is the BDI-II). In some embodiments, a BDI-II total score is determined. In some embodiments, a BDI-II total score of 0-13 indicates minimal depression; a score of 14-19 indicates mild depression; a score of 20-28 indicates moderate depression; and a score of 29-63 indicates severe depression.
as §1, §2, §3, §4

[3] = test system: patient diagnosed with primary hypersomnia; experiment: Epworth Sleepiness Scale (ESS) in hypersomnia patients; assay type: in vivo, human
Excerpt: In some embodiments, total scores in the ESS range from 0 to 24. A skilled artisan will recognize that in the ESS scores at the lower end (towards 0) of the scale indicate an improvement in a subject's hypersomnia. In some embodiments, scores of 10 and above indicate significant hypersomnia symptoms in a subject. In some embodiments, changes of 2-3 points in the ESS indicate clinically meaningful improvements in the subject's hypersomnia.
as §1, §2, §3, §4

[4] = test system: patient diagnosed with primary hypersomnia; experiment: Functional Outcomes of Sleep Questionnaire (FOSQ) in hypersomnia patients; assay type: in vivo, human; parameters: key to FOSQ General Productivity Score / FOSQ Social Outcome Score / FOSQ Activity Level Score / FOSQ Vigilance Score / FOSQ Intimate Relationships and Sexual Activity Score: subscale score ~1-4; higher = improvement; key to Functional Outcomes of Sleep Questionnaire (FOSQ) Total Score: total score ~5-20; higher = improvement
Protocol: In some embodiments, the subject having hypersomnia is assessed using the Functional Outcomes of Sleep Questionnaire (FOSQ). The FOSQ can, e.g., be administered to the subject by asking the subject to rate the impact of a sleep disorder on a scale on activities within certain categories. In some embodiments, an FOSQ total score is determined. In some embodiments, the FOSQ total score is determined from one or more subscale scores (e.g., 1, 2, 3, 4, 5, 6, 7, 8, or more subscale scores). In some embodiments, the FOSQ subscale scores can include, e.g., a General Productivity Score, a Social Outcome Score, an Activity Level Score, a Vigilance Score, or an Intimate Relationship and Sexual Activity Score. A skilled artisan will recognize that higher FOSQ total or subscale scores indicate an improvement in the subject's hypersomnia. In some embodiments, FOSQ total scores can range from about 5 to 20. In some embodiments, FOSQ subscale scores can range from about 1 to 4.
as §1, §2, §3, §4

[5] = test system: patient diagnosed with primary hypersomnia; experiment: Clinical Global Impression of Severity (CGI-S) in hypersomnia patients; assay type: in vivo, human
Protocol: In some embodiments, the subject having hypersomnia is assessed using the Clinical Global Impression of Severity (CGI-S).
as §1, §2, §3, §4

[6] = test system: patient diagnosed with primary hypersomnia; experiment: Self-reported fogginess score in hypersomnia patients; assay type: in vivo, human; settings: oral, average of daily scores over one week
Protocol: In some embodiments, the subject having hypersomnia is assessed using a self-reported fogginess score. It is believed that the fogginess score can be used to evaluate a subject's clarity of thinking, which can reflect the subject's cognitive state. In some embodiments, the subject is asked how foggy the subject feels, e.g., since waking up in the morning or since midday. Scoring in a self-reported fogginess score can, e.g., be scored on a scale from 0 to 3.
as §1, §2, §3, §4

[7] = test system: patient diagnosed with primary hypersomnia; experiment: Clinical Global Impression of Change (CGI-C) in hypersomnia patients; assay type: in vivo, human; settings: oral
Protocol: In some embodiments, the subject having hypersomnia is assessed using the Clinical Global Impression of Change (CGI-C).
as §1, §2, §3, §4

[8] = test system: human patients diagnosed with primary hypersomnia; experiment: Overall comparison of treatments of hypersomnia in human patients; assay type: in vivo; settings: Patients 1 and 2 diagnosed with primary hypersomnia
Protocol: This example describes the treatment of hypersomnia by administering PTZ to two human patients having hypersomnia who were treated with flumazenil (Patient 1) or clarithromycin (Patient 2) prior to the administration of PTZ.
as §3, §4

[9] = Patient 2, before PTZ treatment, on clarithromycin
[10] = Patient 1, before PTZ treatment, on flumazenil
[11] = Patient 1 (patient of Example 2), after 1 week on PTZ 100 mg twice daily, oral
[12] = Patient 1, after 2 weeks on PTZ (200 mg twice daily in 2nd week), oral
[13] = Patient 2, after 1 week on PTZ 100 mg twice daily, oral
[14] = Patient 1 (patient of Example 2), after 1 week on PTZ 100 mg twice daily
[15] = Patient 1, after 2 weeks on PTZ (200 mg twice daily in 2nd week)
[16] = Patient 2, after 1 week on PTZ 100 mg twice daily
[17] = Patient of Example 2, after one week of PTZ treatment vs before treatment

CC[C@H]1OC(=O)[C@H](C)[C@@H](O[C@H]2C[C@@](C)(OC)[C@@H](O)[C@H](C)O2)[C@H](C)[C@@H](O[C@@H]2O[C@H](C)C[C@H](N(C)C)[C@H]2O)[C@](C)(OC)C[C@@H](C)C(=O)[C@H](C)[C@@H](O)[C@]1(C)O [Clarithromycin, clarithromycin]
Multidimensional Fatigue Inventory (MFI) General Fatigue Scale [1, 9]: 17 | Multidimensional Fatigue Inventory (MFI) Mental Fatigue Scale [1, 9]: 9 | Multidimensional Fatigue Inventory (MFI) Physical Fatigue Scale [1, 9]: 13 | Multidimensional Fatigue Inventory (MFI) Reduced Activity Scale [1, 9]: 9 | Multidimensional Fatigue Inventory (MFI) Reduced Motivation Scale [1, 9]: 13 | Beck Depression Inventory (BDI-II) Total Score [2, 9]: 0 | Epworth Sleepiness Scale (ESS) Total Score [3, 9]: 8 | FOSQ Activity Level Score [4, 9]: 2.3 | FOSQ General Productivity Score [4, 9]: 3.4 | FOSQ Intimate Relationships and Sexual Activity Score [4, 9]: 4.0 | FOSQ Social Outcome Score [4, 9]: 3.0 | FOSQ Vigilance Score [4, 9]: 2.1 | Functional Outcomes of Sleep Questionnaire (FOSQ) Total Score [4, 9]: 15 | Clinical Global Impression of Severity (CGI-S) [5, 9]: 4

CCOC(=O)c1ncn2c1CN(C)C(=O)c1cc(F)ccc1-2 [Flumazenil, flumazenil]
Multidimensional Fatigue Inventory (MFI) General Fatigue Scale [1, 10]: 19 | Multidimensional Fatigue Inventory (MFI) Mental Fatigue Scale [1, 10]: 16 | Multidimensional Fatigue Inventory (MFI) Physical Fatigue Scale [1, 10]: 19 | Multidimensional Fatigue Inventory (MFI) Reduced Activity Scale [1, 10]: 19 | Multidimensional Fatigue Inventory (MFI) Reduced Motivation Scale [1, 10]: 12 | Beck Depression Inventory (BDI-II) Total Score [2, 10]: 16 | Epworth Sleepiness Scale (ESS) Total Score [3, 10]: 12 | FOSQ Activity Level Score [4, 10]: 1.4 | FOSQ General Productivity Score [4, 10]: 2.4 | FOSQ Intimate Relationships and Sexual Activity Score [4, 10]: 1.0 | FOSQ Social Outcome Score [4, 10]: 3.0 | FOSQ Vigilance Score [4, 10]: 2.3 | Functional Outcomes of Sleep Questionnaire (FOSQ) Total Score [4, 10]: 10 | Clinical Global Impression of Severity (CGI-S) [5, 10]: 6

C1CCc2nnnn2CC1 [PTZ, pentylenetetrazol]
Multidimensional Fatigue Inventory (MFI) General Fatigue Scale [1, 11]: 18 | Multidimensional Fatigue Inventory (MFI) Mental Fatigue Scale [1, 11]: 7 | Multidimensional Fatigue Inventory (MFI) Physical Fatigue Scale [1, 11]: 14 | Multidimensional Fatigue Inventory (MFI) Reduced Activity Scale [1, 11]: 16 | Multidimensional Fatigue Inventory (MFI) Reduced Motivation Scale [1, 11]: 9 | Multidimensional Fatigue Inventory (MFI) General Fatigue Scale [1, 12]: 15 | Multidimensional Fatigue Inventory (MFI) Mental Fatigue Scale [1, 12]: 8 | Multidimensional Fatigue Inventory (MFI) Physical Fatigue Scale [1, 12]: 14 | Multidimensional Fatigue Inventory (MFI) Reduced Activity Scale [1, 12]: 16 | Multidimensional Fatigue Inventory (MFI) Reduced Motivation Scale [1, 12]: 11 | Multidimensional Fatigue Inventory (MFI) General Fatigue Scale [1, 13]: 13 | Multidimensional Fatigue Inventory (MFI) Mental Fatigue Scale [1, 13]: 6 | Multidimensional Fatigue Inventory (MFI) Physical Fatigue Scale [1, 13]: 7 | Multidimensional Fatigue Inventory (MFI) Reduced Activity Scale [1, 13]: 6 | Multidimensional Fatigue Inventory (MFI) Reduced Motivation Scale [1, 13]: 7 | Beck Depression Inventory (BDI-II) Total Score [2, 11]: 8 | Beck Depression Inventory (BDI-II) Total Score [2, 12]: 5 | Beck Depression Inventory (BDI-II) Total Score [2, 13]: 0 | How foggy have you felt since midday? [6, 14]: 0.1 | How foggy have you felt since waking up this morning? [6, 14]: 1.1 | How foggy have you felt since midday? [6, 15]: 0.7 | How foggy have you felt since waking up this morning? [6, 15]: 1.0 | How foggy have you felt since midday? [6, 16]: 1.2 | How foggy have you felt since waking up this morning? [6, 16]: 2.1 | Epworth Sleepiness Scale (ESS) Total Score [3, 11]: 13 | Epworth Sleepiness Scale (ESS) Total Score [3, 12]: 9 | Epworth Sleepiness Scale (ESS) Total Score [3, 13]: 8 | ESS Total Score decrease [3, 17]: 6 points | Clinical Global Impression of Change (CGI-C) [7, 14]: 3 | Clinical Global Impression of Change (CGI-C) [7, 15]: 2 | Clinical Global Impression of Change (CGI-C) [7, 16]: 2 | FOSQ Activity Level Score [4, 11]: 2.9 | FOSQ General Productivity Score [4, 11]: 3.3 | FOSQ Intimate Relationships and Sexual Activity Score [4, 11]: 2.0 | FOSQ Social Outcome Score [4, 11]: 3.0 | FOSQ Vigilance Score [4, 11]: 3.1 | Functional Outcomes of Sleep Questionnaire (FOSQ) Total Score [4, 11]: 14.5 | FOSQ Activity Level Score [4, 12]: 2.9 | FOSQ General Productivity Score [4, 12]: 3.7 | FOSQ Intimate Relationships and Sexual Activity Score [4, 12]: 3.0 | FOSQ Social Outcome Score [4, 12]: 3.5 | FOSQ Vigilance Score [4, 12]: 3.7 | Functional Outcomes of Sleep Questionnaire (FOSQ) Total Score [4, 12]: 17.0 | FOSQ Activity Level Score [4, 13]: 3.4 | FOSQ General Productivity Score [4, 13]: 3.4 | FOSQ Intimate Relationships and Sexual Activity Score [4, 13]: 4.0 | FOSQ Social Outcome Score [4, 13]: 3.0 | FOSQ Vigilance Score [4, 13]: 2.9 | Functional Outcomes of Sleep Questionnaire (FOSQ) Total Score [4, 13]: 16.5 | FOSQ Total Score increase [4, 17]: 8 points | Efficacy in the treatment of hypersomnia relative to flumazenil and clarithromycin [8]: superior efficacy | Clinical Global Impression of Severity (CGI-S) [5, 11]: 5 | Clinical Global Impression of Severity (CGI-S) [5, 12]: 4 | Clinical Global Impression of Severity (CGI-S) [5, 13]: 3
